Source: patent publication US20240109917A1 (ACTELION PHARMACEUTICALS LTD, priority 2020, published 2024)

Key:
[1] = target: Tb-labeled inactive PDGFRβ (Homo sapiens (Human), UniProt P09619); assay: PDGFRβ LanthaScreen Assay; format: binding; details: read-out: PDGFR Lantha IC50
VEGFR2, unphosphorylated = VEGFR2, unphosphorylated (Homo sapiens (Human), UniProt P35968); assay: VEGFR ADP GLO Assay; format: biochemical
VEGFR2, unphosphorylated, sequence (P35968 20-1356): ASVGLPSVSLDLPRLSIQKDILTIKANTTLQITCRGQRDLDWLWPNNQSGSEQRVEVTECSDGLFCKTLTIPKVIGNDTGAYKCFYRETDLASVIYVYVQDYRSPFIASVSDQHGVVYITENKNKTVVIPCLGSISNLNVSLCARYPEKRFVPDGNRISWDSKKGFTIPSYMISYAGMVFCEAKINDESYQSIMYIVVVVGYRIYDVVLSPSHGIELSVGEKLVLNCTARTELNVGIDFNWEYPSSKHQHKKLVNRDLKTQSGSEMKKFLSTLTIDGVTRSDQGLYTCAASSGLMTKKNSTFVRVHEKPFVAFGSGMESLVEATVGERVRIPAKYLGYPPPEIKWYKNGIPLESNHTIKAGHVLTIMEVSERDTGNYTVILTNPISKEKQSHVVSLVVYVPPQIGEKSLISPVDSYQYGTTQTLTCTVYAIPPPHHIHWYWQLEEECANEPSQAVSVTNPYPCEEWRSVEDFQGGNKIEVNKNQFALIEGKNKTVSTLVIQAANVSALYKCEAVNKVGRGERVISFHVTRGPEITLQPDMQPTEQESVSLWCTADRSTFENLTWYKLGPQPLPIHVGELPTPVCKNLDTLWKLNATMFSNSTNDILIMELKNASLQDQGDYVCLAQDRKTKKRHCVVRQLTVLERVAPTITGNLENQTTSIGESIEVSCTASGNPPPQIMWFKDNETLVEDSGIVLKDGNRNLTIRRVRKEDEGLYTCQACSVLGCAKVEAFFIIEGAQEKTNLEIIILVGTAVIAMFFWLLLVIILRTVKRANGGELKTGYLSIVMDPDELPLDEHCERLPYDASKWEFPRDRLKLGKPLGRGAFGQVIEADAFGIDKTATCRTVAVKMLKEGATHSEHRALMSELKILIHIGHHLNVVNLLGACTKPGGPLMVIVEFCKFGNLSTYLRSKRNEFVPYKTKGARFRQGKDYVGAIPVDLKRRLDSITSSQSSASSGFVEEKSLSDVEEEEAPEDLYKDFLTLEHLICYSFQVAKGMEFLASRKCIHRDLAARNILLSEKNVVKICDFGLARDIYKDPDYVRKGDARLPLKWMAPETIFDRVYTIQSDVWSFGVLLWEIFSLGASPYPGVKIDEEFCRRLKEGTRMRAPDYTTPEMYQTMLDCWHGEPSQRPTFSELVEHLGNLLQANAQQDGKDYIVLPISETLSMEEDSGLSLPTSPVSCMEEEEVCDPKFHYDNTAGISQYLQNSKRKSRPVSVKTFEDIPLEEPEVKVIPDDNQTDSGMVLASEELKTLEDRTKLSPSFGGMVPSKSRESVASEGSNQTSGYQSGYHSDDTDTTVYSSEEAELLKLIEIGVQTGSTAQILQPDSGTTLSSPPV

Tb-labeled inactive PDGFRβ, sequence (P09619 33-1106): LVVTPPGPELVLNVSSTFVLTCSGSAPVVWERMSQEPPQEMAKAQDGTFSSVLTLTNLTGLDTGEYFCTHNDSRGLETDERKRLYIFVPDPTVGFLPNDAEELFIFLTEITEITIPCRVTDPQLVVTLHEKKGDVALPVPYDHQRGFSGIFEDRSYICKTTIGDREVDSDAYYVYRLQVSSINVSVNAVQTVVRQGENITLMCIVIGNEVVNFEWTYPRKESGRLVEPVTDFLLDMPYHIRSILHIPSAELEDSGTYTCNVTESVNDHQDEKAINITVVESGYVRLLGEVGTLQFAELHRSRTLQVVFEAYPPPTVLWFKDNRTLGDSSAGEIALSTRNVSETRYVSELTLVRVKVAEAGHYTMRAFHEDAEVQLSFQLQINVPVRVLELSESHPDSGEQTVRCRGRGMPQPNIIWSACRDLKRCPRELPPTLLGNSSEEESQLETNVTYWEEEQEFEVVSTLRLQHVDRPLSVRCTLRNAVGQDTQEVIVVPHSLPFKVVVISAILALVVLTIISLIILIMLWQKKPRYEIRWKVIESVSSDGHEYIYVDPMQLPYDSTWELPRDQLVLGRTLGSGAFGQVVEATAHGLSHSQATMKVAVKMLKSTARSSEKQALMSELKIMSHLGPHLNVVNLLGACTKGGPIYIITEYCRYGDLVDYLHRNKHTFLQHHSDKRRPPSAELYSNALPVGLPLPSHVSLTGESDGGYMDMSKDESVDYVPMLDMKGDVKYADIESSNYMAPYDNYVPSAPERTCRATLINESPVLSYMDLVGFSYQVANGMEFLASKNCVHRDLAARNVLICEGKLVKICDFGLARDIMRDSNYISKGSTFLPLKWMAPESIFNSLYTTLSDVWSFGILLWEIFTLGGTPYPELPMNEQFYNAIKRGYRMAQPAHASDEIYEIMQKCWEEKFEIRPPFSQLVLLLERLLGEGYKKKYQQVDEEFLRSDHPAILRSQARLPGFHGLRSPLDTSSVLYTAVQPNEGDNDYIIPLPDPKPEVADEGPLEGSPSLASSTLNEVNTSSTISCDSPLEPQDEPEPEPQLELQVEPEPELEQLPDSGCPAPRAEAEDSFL

Cc1ncc(NC(=O)C2CN(C(C)C)C2)cc1NC(=O)c1cnn2cc(-c3cn(C)nc3C)sc12 [Example 354, 2-(1,3-dimethyl-1H-pyrazol-4-yl)-N-(5-(1-isopropylazetidine-3-carboxamido)-2-methylpyridin-3-yl)pyrazolo[5,1-b]thiazole-7-carboxamide]
IC50 [1]: 4.3 nM
IC50 (VEGFR2, unphosphorylated): > 7500 nM

COc1ncccc1-c1cn2ncc(C(=O)Nc3cc(NC(=O)CN4CC5(CCOCC5)C4)cnc3C)c2s1 [Example 403, N-(5-(2-(7-oxa-2-azaspiro[3.5]nonan-2-yl)acetamido)-2-methylpyridin-3-yl)-2-(2-methoxypyridin-3-yl)pyrazolo[5,1-b]thiazole-7-carboxamide carboxamide]
IC50 [1]: 1.3 nM
IC50 (VEGFR2, unphosphorylated): > 7500 nM

Cc1ncc(NC(=O)CN2CCC[C@@H]2C)cc1NC(=O)c1cnn2cc(-c3ccnc(N4CCOCC4)c3)sc12 [Example 352, (S)—N-(2-methyl-5-(2-(2-methylpyrrolidin-1-yl)acetamido)pyridin-3-yl)-2-(2-morpholinopyridin-4-yl)pyrazolo[5,1-b]thiazole-7-carboxamide]
IC50 [1]: 4.7 nM
IC50 (VEGFR2, unphosphorylated): > 7500 nM

Cc1cnn(C)c1-c1cn2ncc(C(=O)Nc3cc(NC(=O)CN4CC(C)(C)C4)cnc3C)c2s1 [Example 389, 2-(1,4-dimethyl-1H-pyrazol-5-yl)-N-(5-(2-(3,3-dimethylazetidin-1-yl)acetamido)-2-methylpyridin-3-yl)pyrazolo[5,1-b]thiazole-7-carboxamide]
IC50 [1]: 7.5 nM
IC50 (VEGFR2, unphosphorylated): > 7500 nM

COCCn1cc(-c2cn3ncc(C(=O)Nc4cc(NC(=O)CN5CCC(C6CC6)C5)cnc4C)c3s2)cn1 (centres unmarked) [Example 341, N-(5-(2-(3-cyclopropylpyrrolidin-1-yl)acetamido)-2-methylpyridin-3-yl)-2-(1-(2-methoxyethyl)-1H-pyrazol-4-yl)pyrazolo[5,1-b]thiazole-7-carboxamide]
IC50 [1]: 4.6 nM
IC50 (VEGFR2, unphosphorylated): > 7500 nM

COCCn1cc(-c2cn3ncc(C(=O)Nc4cc(NC(=O)CN5CCC56CCC6)cnc4C)c3s2)cn1 [Example 333, N-(5-(2-(1-azaspiro[3.3]heptan-1-yl)acetamido)-2-methylpyridin-3-yl)-2-(1-(2-methoxyethyl)-1H-pyrazol-4-yl)pyrazolo[5,1-b]thiazole-7-carboxamide]
IC50 [1]: 3.1 nM
IC50 (VEGFR2, unphosphorylated): > 7500 nM

COc1ccc(-c2cn3ncc(C(=O)Nc4cc(NC(=O)CN5CC(C)(C)C5)cnc4C)c3s2)cn1 [Example 395, N-(5-(2-(3,3-dimethylazetidin-1-yl)acetamido)-2-methylpyridin-3-yl)-2-(6-methoxypyridin-3-yl)pyrazolo[5,1-b]thiazole-7-carboxamide]
IC50 [1]: 7.3 nM
IC50 (VEGFR2, unphosphorylated): > 7500 nM

Cc1ncc(NC(=O)CN2CC(C)(C)C2)cc1NC(=O)c1cnn2cc(-c3cncnc3C)sc12 [Example 398, N-(5-(2-(3,3-dimethylazetidin-1-yl)acetamido)-2-methylpyridin-3-yl)-2-(4-methylpyrimidin-5-yl)pyrazolo[5,1-b]thiazole-7-carboxamide]
IC50 [1]: 181 nM
IC50 (VEGFR2, unphosphorylated): > 7500 nM

COCCn1cc(-c2cn3ncc(C(=O)Nc4cc(NC(=O)CN5CC6CCC5CC6)cnc4C)c3s2)cn1 [Example 331, N-(5-(2-(2-azabicyclo[2.2.2]octan-2-yl)acetamido)-2-methylpyridin-3-yl)-2-(1-(2-methoxyethyl)-1H-pyrazol-4-yl)pyrazolo[5,1-b]thiazole-7-carboxamide]
IC50 [1]: 3.3 nM
IC50 (VEGFR2, unphosphorylated): > 7500 nM

COCCn1cc(-c2cn3ncc(C(=O)Nc4cc(NC(=O)CN5CCCCC5)cnc4C)c3s2)cn1 [Example 338, 2-(1-(2-methoxyethyl)-1H-pyrazol-4-yl)-N-(2-methyl-5-(2-(piperidin-1-yl)acetamido)pyridin-3-yl)pyrazolo[5,1-b]thiazole-7-carboxamide]
IC50 [1]: 4.8 nM
IC50 (VEGFR2, unphosphorylated): > 7500 nM
